Counter-ions that a name gives are not always drawn.
tested on: NRG1-ERBB4 signaling; test: Nrg1-ERBB4-PIK3R1 split TEV co-culture compound screen of the NIH Clinical Collection; format: cell-based, human; details: NIH Clinical Collection NCC-003 raw data; compounds ranked by Z-score; 'flagged' given instead of a Z-score

SMILES	Z-SCORE
COc1cc([C@@H]2c3cc4c(cc3[C@@H](O[C@@H]3O[C@@H]5CO[C@@H](C)O[C@H]5[C@H](O)[C@H]3O)[C@H]3COC(=O)[C@H]23)OCO4)cc(OC)c1O [Etoposide]	-2.67
NC(N)=Nc1nc(CSCCC(N)=NS(N)(=O)=O)cs1 [FAMOTIDINE]	-1.65
COC(=O)Nc1nc2cc(C(=O)c3ccc(F)cc3)ccc2[nH]1 [FLUBENDAZOLE]	flagged
CC(C(=O)O)c1ccc(-c2ccccc2)c(F)c1 (stereo not drawn) [Flurbiprofen, reference compound]	-1.64
CC(C)C[C@H](NC(=O)[C@@H](COC(C)(C)C)NC(=O)[C@H](Cc1ccc(O)cc1)NC(=O)[C@H](CO)NC(=O)[C@H](Cc1c[nH]c2ccccc12)NC(=O)[C@H](Cc1cnc[nH]1)NC(=O)[C@@H]1CCC(=O)N1)C(=O)N[C@@H](CCCNC(=N)N)C(=O)N1CCC[C@H]1C(=O)NNC(N)=O [GOSERELIN ACETATE]	-1.23
COC(=O)C[C@](O)(CCCC(C)(C)O)C(=O)O[C@@H]1C(OC)=C[C@]23CCCN2CCc2cc4c(cc2[C@H]13)OCO4 [HOMOHARRINGTONINE]	flagged
C=CCc1ccc(O)c(-c2ccc(O)c(CC=C)c2)c1 [HONOKIOL]	flagged

same assay, conditions: compound screen of the NIH Clinical Collection, sheet raw data NCC-003; compounds ranked by Z-score

SMILES	Z-SCORE
O=C(O[C@@H]1Cc2c(O)cc(O)cc2O[C@@H]1c1cc(O)c(O)c(O)c1)c1cc(O)c(O)c(O)c1 [Epigallocatechin gallate]	1.36
CC[C@]1(O)CC[C@H]2[C@@H]3CCC4=CCCC[C@@H]4[C@H]3CC[C@@]21C [Ethylestrenol]	-0.98
CC(=O)OCC(CCn1cnc2cnc(N)nc21)COC(C)=O [FAMCICLOVIR]	1.05
Oc1ccc(C2CNCCc3c2cc(O)c(O)c3Cl)cc1 (stereo not drawn) [FENOLDOPAM MESYLATE]	-0.37
C[N+]1(CCC(C(N)=O)(c2ccccc2)c2ccccc2)CCCCC1 [FENPIVERINIUM BROMIDE]	-0.58
CC(C)(C)NC(=O)[C@H]1CC[C@H]2[C@@H]3CC[C@H]4NC(=O)C=C[C@]4(C)[C@H]3CC[C@]12C [FINASTERIDE]	-0.75
CCOC(=O)c1ncn2c1CN(C)C(=O)c1cc(F)ccc1-2 [FLUMAZENIL]	0.09
CCC(=O)O[C@]1(C(=O)SCF)[C@H](C)C[C@H]2[C@@H]3C[C@H](F)C4=CC(=O)C=C[C@]4(C)[C@@]3(F)[C@@H](O)C[C@@]21C [FLUTICASONE PROPIONATE]	-0.31
O=c1[nH]c(=O)n(C2CCCO2)cc1F (stereo not drawn) [FTORAFUR]	-0.09
NC(=O)OCC(COC(N)=O)c1ccccc1 [Felbamate]	-0.25
CN1CCN(C2=Nc3cc(F)ccc3Cc3ccccc32)CC1 [Fluperlapine]	-0.5
COCCCC/C(=N\OCCN)c1ccc(C(F)(F)F)cc1 [Fluvoxamine]	-0.2
CCC1=C(C)CN(C(=O)NCCc2ccc(S(=O)(=O)NC(=O)N[C@H]3CC[C@H](C)CC3)cc2)C1=O [GLIMEPIRIDE]	0.02
COC(=O)N1CCN(C(=O)Cc2ccc(Cl)c(Cl)c2)C(CN2CCCC2)C1 (stereo not drawn) [GR 89696]	1.46
CN1C2CCCC1CC(NC(=O)c1nn(C)c3ccccc13)C2 (stereo not drawn) [GRANISETRON HCl]	0.21
CCOC(=O)c1ccc(OC(=O)CCCCCN=C(N)N)cc1.CS(=O)(=O)O [Gabexate mesylate]	-0.47
COc1ccc2c3c1O[C@H]1C[C@@H](O)C=C[C@@]31CCN(C)C2 [Galanthamine]	1.13
C[N+]1(C)CCC(OC(=O)C(O)(c2ccccc2)C2CCCC2)C1 (stereo not drawn) [Glycopyrrolate, reference compound]	0
C[C@@H]1C[C@H]2[C@@H]3C[C@H](F)C4=CC(=O)C(Cl)=C[C@]4(C)[C@@]3(F)[C@@H](O)C[C@]2(C)[C@@]1(O)C(=O)CO.O [HALOMETASONE MONOHYDRATE]	-0.25
CC(CCCCC(=O)Nc1ccc(C(F)(F)F)cc1)NCCc1cnc[nH]1 (stereo not drawn) [HTMT]	-0.18
C/C=C1\[C@H]2C=C(C)C[C@]1(N)c1ccc(=O)[nH]c1C2 [HUPERZINE A]	-0.3
O=c1c(O[C@@H]2O[C@H](CO)[C@H](O)[C@H](O)[C@H]2O)c(-c2ccc(O)c(O)c2)oc2cc(O)cc(O)c12 [HYPEROSIDE]	0.68
O=C(CCCN1CCC(O)(c2ccc(Cl)cc2)CC1)c1ccc(F)cc1 [Haloperidol]	-0.98
COc1ccc(CCN)cc1OC [Homoveratrylamine]	-0.37
COc1ccc(-c2oc3c(CC=C(C)C)c(O[C@@H]4O[C@H](CO)[C@@H](O)[C@H](O)[C@H]4O)cc(O)c3c(=O)c2O[C@@H]2O[C@@H](C)[C@H](O)[C@@H](O)[C@H]2O)cc1 [ICARIIN]	-0.37

same assay, conditions: compounds at 10 μM, 24 h; PC12 split TEV assay cells co-cultured with Nrg1-expressing PC12 cells; analysed with cellHTS2

SMILES	Z-SCORE
CCOC(=O)CCC(=O)O[C@H]1[C@H](O[C@@H]2[C@@H](C)[C@H](O[C@H]3C[C@@](C)(OC)[C@@H](O)[C@H](C)O3)[C@@H](C)C(=O)O[C@H](CC)[C@@](C)(O)[C@H](O)[C@@H](C)C(=O)[C@H](C)C[C@@]2(C)O)O[C@H](C)C[C@@H]1N(C)C [Eryped, reference compound]	-0.38
CN1CCN(C(=O)O[C@H]2c3nccnc3C(=O)N2c2ccc(Cl)cn2)CC1 [Eszopiclone, reference compound]	0.38
CC[C@@H](CO)NCCN[C@@H](CC)CO [Ethambutol, reference compound]	-0.12
CCc1cc(C(N)=S)ccn1 [Ethionamide, reference compound]	0.42
CCc1cccc2c3c([nH]c12)C(CC)(CC(=O)O)OCC3 (stereo not drawn) [Etodolac, reference compound]	-0.28
O=C(c1ccc(OCCN2CCCCC2)cc1)c1c(-c2ccc(O)cc2)sc2cc(O)ccc12 [Evista, reference compound]	1.2
CC(C)OC(=O)C(C)(C)Oc1ccc(C(=O)c2ccc(Cl)cc2)cc1 [FENOFIBRATE, reference compound]	0.77
Nc1nc(F)nc2c1ncn2[C@@H]1O[C@H](CO)[C@@H](O)[C@@H]1O [FLUDARABINE, reference compound]	0.7
CC(=O)OCC(=O)[C@@]12OC(C)(C)O[C@@H]1C[C@H]1[C@@H]3C[C@H](F)C4=CC(=O)C=C[C@]4(C)[C@@]3(F)[C@@H](O)C[C@@]12C [FLUOCINOLONE ACETONIDE 21-ACETATE, reference compound]	0.81
CC1(C)O[C@@H]2C[C@H]3[C@@H]4C[C@H](F)C5=CC(=O)C=C[C@]5(C)[C@@]4(F)[C@@H](O)C[C@]3(C)[C@]2(C(=O)CO)O1 [FLUOCINOLONE ACETONIDE, reference compound]	-0.16
CC(C)C(=O)Nc1ccc([N+](=O)[O-])c(C(F)(F)F)c1 [FLUTAMIDE, reference compound]	0.85
NS(=O)(=O)c1cc(C(=O)O)c(NCc2ccco2)cc1Cl [FUROSEMIDE, reference compound]	0.8
CCOC(=O)C1=C(C)NC(C)=C(C(=O)OC)C1c1cccc(Cl)c1Cl (stereo not drawn) [Felodipine, reference compound]	-1.97
O=C(NCC1CCCCN1)c1cc(OCC(F)(F)F)ccc1OCC(F)(F)F (stereo not drawn) [Flecainide Acetate, reference compound]	-0.19
O=c1[nH]c(=O)n([C@H]2C[C@H](O)[C@@H](CO)O2)cc1F [Floxuridine, reference compound]	-0.39
OC(Cn1cncn1)(Cn1cncn1)c1ccc(F)cc1F [Fluconazole, reference compound]	0.28
CC(N)C12CC3CC(CC(C3)C1)C2 (stereo not drawn) [Flumadine, reference compound]	-0.97

SMILES	Z-SCORE
CC1(C)O[C@@H]2C[C@H]3[C@@H]4C[C@H](F)C5=CC(=O)C=C[C@]5(C)[C@H]4[C@@H](O)C[C@]3(C)[C@]2(C(=O)CO)O1 [FluniSOLIDe, reference compound]	2.03
CC(=O)[C@@]1(O)CC[C@H]2[C@@H]3C[C@H](C)C4=CC(=O)C=C[C@]4(C)[C@@]3(F)[C@@H](O)C[C@@]21C [Fluorometholone, reference compound]	-0.4
CC(C(=O)O)c1ccc(-c2ccccc2)c(F)c1 (stereo not drawn) [Flurbiprofen, reference compound]	0.7
Nc1nc(=O)c2nc(CNc3ccc(C(=O)N[C@@H](CCC(=O)O)C(=O)O)cc3)cnc2[nH]1 [Folic acid, reference compound]	0
Cc1ccc(C)c(OCCCC(C)(C)C(=O)O)c1 [GEMFIBROZIL, reference compound]	0.52
Cc1cnc(C(=O)NCCc2ccc(S(=O)(=O)NC(=O)NC3CCCCC3)cc2)cn1 [GLIPIZIDE, reference compound]	0.73
Nc1nc(O)c2ncn(COC(CO)CO)c2n1 [Ganciclovir, reference compound]	-0.19
COc1c(N2CCNC(C)C2)c(F)cc2c(=O)c(C(=O)O)cn(C3CC3)c12 (stereo not drawn) [Gatifloxacin, reference compound]	1.07
COc1ccc(Cl)cc1C(=O)NCCc1ccc(S(=O)(=O)NC(=O)NC2CCCCC2)cc1 [Glyburide, reference compound]	-0.5
C[N+]1(C)CCC(OC(=O)C(O)(c2ccccc2)C2CCCC2)C1 (stereo not drawn) [Glycopyrrolate, reference compound]	-0.44
COC1=CC(=O)C[C@@H](C)[C@]12Oc1c(Cl)c(OC)cc(OC)c1C2=O [Griseofulvin, reference compound]	0.64
C[C@]12CCC(=O)C=C1CC[C@@H]1[C@@H]2[C@@H](O)C[C@@]2(C)[C@H]1CC[C@]2(O)C(=O)COC(=O)CCC(=O)O [HYDROCORTISONE HEMISUCCINATE, reference compound]	-1.64
C[C@]12CCC(=O)C=C1CC[C@@H]1[C@@H]2[C@@H](O)C[C@@]2(C)[C@H]1CC[C@]2(O)C(=O)CO [HYDROCORTISONE, reference compound]	-1.61
NS(=O)(=O)c1cc2c(cc1C(F)(F)F)NCNS2(=O)=O [HYDROFLUMETHIAZIDE, reference compound]	-0.47
Oc1c(Cl)cc(Cl)c(Cl)c1Cc1c(O)c(Cl)cc(Cl)c1Cl [Hexachlorophene, reference compound]	flagged
NS(=O)(=O)c1cc2c(cc1Cl)NCNS2(=O)=O [Hydrochlorothiazide, reference compound]	-0.03
CC(C)Cc1ccc(C(C)C(=O)O)cc1 (stereo not drawn) [IBUPROFEN, reference compound]	0.27

From article PMC5653977 (EMBO Molecular Medicine, 2017)
